Data as given in the NIST ThermoML archive (doi:10.1021/je200150r).
± gives the expanded uncertainty stated by the source.

Test: xn = mol fraction of the nth substance listed
Conditions: 101 kPa, Liquid; for viscosity: Capillary tube (Ostwald / Ubbelohde) method; for mass density: Pycnometric method

OCc1ccccc1 [benzenemethanol] + CCC(C)=O
Conditions	mass density, 303.15 K [kg/m3]	mass density, 308.15 K [kg/m3]	mass density, 313.15 K [kg/m3]	mass density, 318.15 K [kg/m3]	mass density, 323.15 K [kg/m3]	viscosity, 303.15 K [mPa·s]	viscosity, 308.15 K [mPa·s]	viscosity, 313.15 K [mPa·s]	viscosity, 318.15 K [mPa·s]	viscosity, 323.15 K [mPa·s]
x1 = 0.1003	825.4 ± 0.9	820.4 ± 0.9	815.4 ± 0.9	810.4 ± 0.9	805.3 ± 0.9	0.446 ± 0.006	0.424 ± 0.006	0.403 ± 0.005	0.385 ± 0.005	0.368 ± 0.005
x1 = 0.2	854.7 ± 0.9	849.9 ± 0.9	845.1 ± 0.9	840.3 ± 0.9	835.5 ± 0.9	0.554 ± 0.007	0.524 ± 0.007	0.497 ± 0.006	0.472 ± 0.006	0.451 ± 0.006
x1 = 0.301	882.5 ± 0.9	877.8 ± 0.9	873 ± 0.9	868.3 ± 0.9	863.6 ± 0.9	0.697 ± 0.009	0.655 ± 0.008	0.616 ± 0.008	0.582 ± 0.007	0.551 ± 0.007
x1 = 0.3991	907.5 ± 0.9	903 ± 0.9	898.4 ± 0.9	893.9 ± 0.9	889.3 ± 0.9	0.876 ± 0.011	0.818 ± 0.01	0.765 ± 0.01	0.718 ± 0.009	0.676 ± 0.009
x1 = 0.5001	932.6 ± 0.9	928.2 ± 0.9	923.8 ± 0.9	919.4 ± 0.9	915 ± 0.9	1.131 ± 0.014	1.046 ± 0.013	0.97 ± 0.012	0.904 ± 0.011	0.845 ± 0.011
x1 = 0.6	956.3 ± 0.9	952 ± 0.9	947.8 ± 0.9	943.6 ± 0.9	939.3 ± 0.9	1.476 ± 0.019	1.351 ± 0.017	1.242 ± 0.016	1.146 ± 0.014	1.063 ± 0.013
x1 = 0.7008	978.2 ± 0.9	974.1 ± 0.9	969.9 ± 0.9	965.8 ± 0.9	961.7 ± 0.9	1.947 ± 0.025	1.761 ± 0.022	1.599 ± 0.02	1.461 ± 0.018	1.341 ± 0.017
x1 = 0.8001	998.5 ± 0.9	994.6 ± 0.9	990.5 ± 0.9	985.6 ± 0.9	982.7 ± 0.9	2.586 ± 0.033	2.307 ± 0.029	2.063 ± 0.026	1.866 ± 0.023	1.694 ± 0.021
x1 = 0.8997	1018.1 ± 0.9	1014.3 ± 0.9	1010.4 ± 0.9	1006.5 ± 0.9	1002.7 ± 0.9	3.452 ± 0.044	3.033 ± 0.038	2.682 ± 0.034	2.391 ± 0.03	2.144 ± 0.027
x1 = 1	1037.6 ± 0.9	1033.8 ± 0.9	1030.1 ± 0.9	1026.3 ± 0.9	1022.5 ± 0.9	4.689 ± 0.059	4.058 ± 0.051	3.531 ± 0.044	3.103 ± 0.039	2.747 ± 0.035
